Assay results: paper PMC6013238, “Development of novel NEMO-binding domain mimetics for inhibiting IKK/NF-κB activation” (PLoS Biology, 2018)

What was measured:
NEMO/IKKα interaction = target: T1, NEMO/IKKα interaction (Mus musculus, UniProt O88522); experiment: Co-immunoprecipitation of NEMO and IKKα in Raw 264.7 cells; type: cell-based; settings: 0, 25, 50, 100, 150 μM, 30 min
T1 construct: Co-immunoprecipitation of endogenous IKKβ and NEMO; endogenous in cells; host or cells: Raw 264.7
Method: (§1) To determine whether the novel NBD mimetics target the NEMO-IKKβ interaction in vivo, co-immunoprecipitations were performed using extracts from Raw 264.7 macrophages (Fig 5A). […] No interaction between NEMO and TNF receptor-associated factor 2 (TRAF2) or IκBα was observed under these conditions. […] The levels of phosphorylated IKK complex, IκBα, and p65 in response to TNF-α and LPS were all reduced by SR12343 (Fig 5D & 5E). […] However, there were no changes in the levels of phospho-c-Jun N-terminal kinase (p-JNK), p-p38MAPK, total JNK, and p38MAPK by treatment with SR12343 (150 μM) in response to TNF-α or LPS stimulation (Fig 5G & 5H). […]
(§2) (A) Co-IP analysis detecting the IKKβ/NEMO interaction. […] NEMO-binding products were then analyzed for levels of IKKβ, IKKα, TRAF2, and IκBα (negative control), and levels of NEMO were used as a loading control (left panel). […] The levels of IKKβ-FLAG binding to GST-NEMO were determined by western blot analysis with GST-NEMO used as a loading control. […] Cell lysates were analyzed for activity of the IKK/NF-κB signaling pathway including activation of IKK complex, IκBα, and p65. […] Cell lysates were harvested and analyzed for activation of noncanonical NF-κB signaling, the processing of p100 to p52. […]

IKKβ/NEMO interaction = target: T2, IKKβ/NEMO interaction (Mus musculus, UniProt O88522); experiment: Co-immunoprecipitation of endogenous IKKβ and NEMO in Raw 264.7 cells; type: cell-based; settings: 100 μM mimetics, 8K-NBD 400 μM, 30 min
T2 construct: Co-immunoprecipitation of endogenous IKKβ and NEMO; endogenous in cells; host or cells: Raw 264.7
Method: as §1, §2

Ercc1−/Δ mice = experiment: Chronic treatment of Ercc1−/Δ mice (health span); type: in vivo, mouse; settings: preliminary experiments
From the text: Thus, these novel NBD mimetics could be used not only for treatment of inflammatory and degenerative diseases but also for aging.

T2 sequence (O88522 whole entry): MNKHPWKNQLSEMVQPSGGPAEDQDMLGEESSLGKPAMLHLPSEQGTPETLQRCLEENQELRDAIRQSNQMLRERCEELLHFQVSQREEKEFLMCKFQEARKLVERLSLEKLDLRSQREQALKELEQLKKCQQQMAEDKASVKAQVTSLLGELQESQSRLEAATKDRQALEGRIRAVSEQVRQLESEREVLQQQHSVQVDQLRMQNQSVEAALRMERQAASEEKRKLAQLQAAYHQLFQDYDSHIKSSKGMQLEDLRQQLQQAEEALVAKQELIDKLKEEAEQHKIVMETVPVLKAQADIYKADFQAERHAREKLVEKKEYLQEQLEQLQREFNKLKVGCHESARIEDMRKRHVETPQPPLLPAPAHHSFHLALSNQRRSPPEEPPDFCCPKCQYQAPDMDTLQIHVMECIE
T1 sequence (O88522 whole entry): as above

## O=C(CNc1ccc(Cl)cn1)NCCc1cccc(Br)c1 [SR12343]
NEMO/IKKα interaction
  NEMO/IKKα binding (Co-IP): only a marginal effect
IKKβ/NEMO interaction
  IKKβ-NEMO interaction (Co-IP): most effective
Ercc1−/Δ mice
  Health span: extended health span
